# Measured values published in patent publication US11859212B2, “Method for producing intestinal organoid derived from pluripotent stem cells” (PUBLIC UNIVERSITY CORPORATION NAGOYA CITY UNIVERSITY, priority 2017, dated 2024).
# Like-named read-outs stand apart in the source and are kept apart here.
# What was measured:
# ABCB1/MDR1 [1] = molecular target: T1, ABCB1/MDR1 (Homo sapiens, UniProt P08183); test: Rhodamine 123 uptake experiment, function of ABCB1/MDR1 in human intestinal organoids (fluorescence observation); type: in vitro ADME; settings: rhodamine 123 10 μmol/L, 37° C., 1 hour, absence of verapamil
# T1 sequence (P08183 whole entry): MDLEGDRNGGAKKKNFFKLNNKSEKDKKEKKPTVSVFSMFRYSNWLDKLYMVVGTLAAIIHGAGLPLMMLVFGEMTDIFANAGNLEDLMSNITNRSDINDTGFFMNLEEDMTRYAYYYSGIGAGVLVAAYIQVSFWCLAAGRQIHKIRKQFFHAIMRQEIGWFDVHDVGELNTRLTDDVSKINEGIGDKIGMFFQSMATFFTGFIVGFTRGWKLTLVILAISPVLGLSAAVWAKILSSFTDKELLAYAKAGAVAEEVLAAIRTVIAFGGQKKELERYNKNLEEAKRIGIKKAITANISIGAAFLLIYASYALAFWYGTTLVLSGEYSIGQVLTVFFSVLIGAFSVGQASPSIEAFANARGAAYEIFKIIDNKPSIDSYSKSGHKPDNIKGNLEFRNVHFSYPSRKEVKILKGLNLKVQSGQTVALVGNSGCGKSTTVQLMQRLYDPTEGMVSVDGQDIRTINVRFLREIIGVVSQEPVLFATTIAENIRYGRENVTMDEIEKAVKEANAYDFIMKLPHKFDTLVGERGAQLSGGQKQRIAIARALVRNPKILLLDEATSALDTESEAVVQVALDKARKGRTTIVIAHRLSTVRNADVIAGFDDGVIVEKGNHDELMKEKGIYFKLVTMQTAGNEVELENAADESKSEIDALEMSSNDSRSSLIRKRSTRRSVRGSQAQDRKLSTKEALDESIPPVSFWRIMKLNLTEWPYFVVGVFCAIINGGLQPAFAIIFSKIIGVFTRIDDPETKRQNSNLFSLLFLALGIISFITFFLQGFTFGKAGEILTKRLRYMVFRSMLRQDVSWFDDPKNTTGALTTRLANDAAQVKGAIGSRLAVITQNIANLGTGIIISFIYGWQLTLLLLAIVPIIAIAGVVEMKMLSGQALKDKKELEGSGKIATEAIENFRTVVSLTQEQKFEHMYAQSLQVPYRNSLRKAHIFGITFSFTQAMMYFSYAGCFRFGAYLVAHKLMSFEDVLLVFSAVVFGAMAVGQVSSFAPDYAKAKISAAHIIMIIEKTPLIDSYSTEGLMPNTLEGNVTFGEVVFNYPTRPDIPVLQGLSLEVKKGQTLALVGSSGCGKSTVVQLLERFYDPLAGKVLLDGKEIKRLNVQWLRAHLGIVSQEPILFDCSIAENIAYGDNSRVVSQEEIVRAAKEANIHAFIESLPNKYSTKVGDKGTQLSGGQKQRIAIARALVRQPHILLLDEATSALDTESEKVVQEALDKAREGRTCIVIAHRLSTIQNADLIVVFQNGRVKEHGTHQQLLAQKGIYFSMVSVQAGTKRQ
# ABCB1/MDR1 [2] = molecular target: T1, ABCB1/MDR1; test: Rhodamine 123 transport experiment, human intestinal organoids obtained with polysaccharide polymers; type: in vitro ADME
# ABCG2/BCRP = molecular target: T2, ABCG2/BCRP (Homo sapiens, UniProt Q9UNQ0); test: Hoechst 33342 transport experiment, human intestinal organoids obtained with polysaccharide polymers; type: in vitro ADME
# T2 sequence (Q9UNQ0 1-655): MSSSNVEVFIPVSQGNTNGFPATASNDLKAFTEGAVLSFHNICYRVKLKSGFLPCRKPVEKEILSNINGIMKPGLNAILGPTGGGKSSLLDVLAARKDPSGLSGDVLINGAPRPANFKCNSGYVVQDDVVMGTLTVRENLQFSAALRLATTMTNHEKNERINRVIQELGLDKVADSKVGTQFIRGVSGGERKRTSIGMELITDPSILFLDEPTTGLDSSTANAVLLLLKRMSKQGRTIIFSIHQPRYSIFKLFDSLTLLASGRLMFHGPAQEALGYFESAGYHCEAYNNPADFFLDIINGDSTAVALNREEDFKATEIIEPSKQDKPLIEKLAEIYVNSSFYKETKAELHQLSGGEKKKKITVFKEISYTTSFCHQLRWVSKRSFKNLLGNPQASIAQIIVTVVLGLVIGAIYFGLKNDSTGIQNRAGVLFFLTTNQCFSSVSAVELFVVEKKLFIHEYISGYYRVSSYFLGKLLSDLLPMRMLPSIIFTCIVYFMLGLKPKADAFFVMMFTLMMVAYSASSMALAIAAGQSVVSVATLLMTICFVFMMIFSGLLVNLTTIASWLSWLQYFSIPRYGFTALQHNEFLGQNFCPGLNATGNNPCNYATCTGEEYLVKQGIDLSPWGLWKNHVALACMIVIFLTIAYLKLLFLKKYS
# CYP3A4 [3] = test system: CYP3A4
# CYP3A8 [4] = test system: CYP3A8
# CYP3A4 [5] = test: CYP3A4 induction ability of human intestinal organoids obtained with polysaccharide polymers (mRNA and midazolam metabolic activity); settings: VD3 1 μmol/L, 72 hours
# CYP3A8 [6] = test: Drug metabolism experiment with midazolam, CYP3A8 metabolic activity of cynomolgus monkey intestinal organoids; settings: 5 μmol/L midazolam, 37° C., 24 hours
# CYP3A4 [7] = test: Drug metabolism experiment with midazolam, CYP3A4 metabolic activity of human intestinal organoids obtained with polysaccharide polymers; settings: 5 μmol/L midazolam
molecule,measurement,setting,value
rhodamine 123,excretion of rhodamine 123 into the intestinal organoids,ABCB1/MDR1 [1],observed
same,excretion of rhodamine 123 into the intestinal organoids,ABCB1/MDR1 [2],observed
CCOc1ccc(-c2nc3ccc(-c4nc5ccc(N6CCN(C)CC6)cc5[nH]4)cc3[nH]2)cc1 [Hoechst 33342],excretion of Hoechst 33342 into the intestinal organoids,ABCG2/BCRP,observed
"C=C1/C(=C\C=C2/CCC[C@]3(C)[C@@H]([C@H](C)CCCC(C)(C)O)CC[C@@H]23)C[C@@H](O)C[C@@H]1O [VD3, 1α, 25-dihydroxyvitamin D3]",induction of mRNA expression of CYP3A4 as compared with the control group,CYP3A4 [3],approximately 4.5 times
same,induction of mRNA expression of CYP3A8 as compared with the control group,CYP3A8 [4],no induction
same,midazolam metabolic activity in the inducer-added group,CYP3A4 [5]; 5 μmol/L midazolam,significantly increased
same,induction of mRNA expression of CYP3A4 as compared with the control group,CYP3A4 [5]; organoids obtained with polysaccharide polymers,significantly induced
Cc1ncc2n1-c1ccc(Cl)cc1C(c1ccccc1F)=NC2 [midazolam],midazolam metabolic activity,CYP3A8 [6],observed
same,midazolam metabolic activity,"CYP3A4 [7]; 37° C., 24 hours",observed
CC(=O)N1CCN(c2ccc(OCC3COC(Cn4ccnc4)(c4ccc(Cl)cc4Cl)O3)cc2)CC1 (stereo not shown) [ketoconazole],effect of inhibitor on midazolam metabolic activity,CYP3A4 [7],significantly inhibited
